# Like-named read-outs stand apart in the source and are kept apart here.
# Assays:
# [1] = system: mechanical (tactile) allodynia in streptozotocin diabetic rats; conditions: i.p.; for Duration / Time to peak effect: Table III; for Max. efficacy (% MPE): Table III (3, 10 and 20 mg/kg levels only); for maximum efficacy or highest % suppression of allodynia at highest dosage unaffected by toxicity: Example 6
# Method: (§1) Rats are made diabetic by a single intraperitoneal injection of streptozotocin (50 mg/kg body weight) freshly dissolved in 0.9% sterile saline) in order to ablate pancreatic β cells and induce insulin deficiency. Two days later, diabetes is confirmed in streptozotocin-injected rats by measuring glucose concentration in a blood sample obtained by tail prick, using a glucose oxidase-impregnated test strip and reflectance meter (Ames Glucostix and Glucometer II, Myles Inc., Elkhart, Ind.) (Calcutt, et al., 1993). Streptozotocin-injected animals with blood glucose concentrations below 15 mmol/l are excluded from subsequent studies. Diabetic rats received thrice weekly sub-cutaneous injections of 2U heat-treated Ultralente insulin (Novo Industrie A/C, Copenhagen, Denmark) in a regime shown to prevent loss of body weight and musculature whilst allowing continued hyperglycemia. Injections were made on Monday, Wednesday and Friday and behavioral measurements made on Tuesdays and Thursdays.
# [2] = cited from earlier work
# painful neuropathies = conditions: oral administration, literature; cited from earlier work
# [3] = system: mechanical (tactile) allodynia in nerve ligation (Chung) model rats; assay: animal or person; conditions: for Duration / Time to peak effect / Max. efficacy (% MPE): Table I; for Max. efficacy (% MPE): highest dose tested; for ED50: Rattus norvegicus, ip
# Method: Rats (male Sprague Dawley, Harlan Industries, Indianapolis, Ind.) are housed in ALAC approved cages using soft bedding and 12/12 hour day/night cycle, in atmospherically maintained rooms in the CTF/VA Animal Vivarium. For the nerve ligation model, rats are typically lesioned at 125-175 g body weight, while for the diabetic rat model, 275-325 gram rats are employed.
# Kim SH, Chung JM: An experimental model for peripheral neuropathy produced by segmental spinal nerve ligation in the rat. Pain 50: 355-363 (1992).
# Anomalous pain states evoked by nerve injury in man is believed to be modeled by effects produced by chronic peripheral nerve injury lesion in rats. To create a chronic nerve injury the L5 and L6 spinal nerves are visualized by removal of the L6 transverse process. The two spinal nerves are ligated with 6-0 silk thread […] under halothane anesthesia. […] The rats were allowed a 7 day postoperative recovery period before further studies or procedures.
# Rats were placed in a clear plastic, wire mesh-bottomed cage, divided into individual compartments of 5×6×9 inches, which permitted freedom of movement while allowing access to the paws to be tested. Animals were allowed to accommodate to this environment for approximately 15 minutes, or until cage exploration behavior ceased. To assess the 50% mechanical threshold for paw withdrawal, von Frey hairs were applied to the plantar mid-hindpaw, avoiding the footpads. The eight von Frey hairs used are designated by and range from 0.4-15.1 grams (#'s3.61-5/18). Each hair was pressed perpendicularly against the paw with sufficient force to cause bending, and held for approximately 6-8 seconds. A positive response was noted if the paw was sharply withdrawn. Absence of a response was cause to present the next consecutive stronger stimulus: a positive response was cause to present the next weaker stimulus. If a change in response occurred, causing a change in the direction of stimulus presentation from descending to ascending or vice-versa, four additional data points were collected subsequent to the change. Stimuli were presented successively until either six data points were collected, or the maximum or minimum stimulus was reached. If a minimum stimulus was reached and positive responses still occurred, the threshold was assigned an arbitrary minimum value of 0.25 grams; if a maximum stimulus was presented and no response occurred, a maximum threshold value of 15 grams was assigned. The resulting pattern of responses was tabulated and the 50% response threshold computed using the formula:
# log (threshold, mg×10)=Xf+k∂
# Based on observations on normal, unoperated rats and sham-operated rats, the cutoff of a 15.1 g hair is selected as the upper limit for testing. (Chaplan, et al., 1994.)
# Four agents were examined. […] The dose range was determined on a single rat on a 0.5 log unit dose until an endpoint of effect was reached (loss of motor function, seizure/rigidity, complete nerve blockage). Once the dose range was established, each drug was examined at a minimum of 3 doses in groups of 6 rats per dose. Groups were prepared to receive injections of drugs, or saline control, by i.p. injection. After the animals accommodated to the post-operative test environment, animals received treatment and the effects upon the tactile threshold were determined using the up-down method as described in Example 3. The following is a typical paradigm for IP application: […]
# [4] = system: mechanical (tactile) allodynia in streptozotocin diabetic rats; assay: animal or person; conditions: Rattus norvegicus, ip
# Method: as §1
# cardiac sodium channels = conditions: Hill et al. 1988; cited from earlier work
# arrhythmia in dogs = conditions: cited from earlier work
# [5] = stated without a described test
# [6] = 30 mg/kg, affected by toxicity/behavioral problems, not probative
# [7] = read-out: ED 50 or the calculated dose for 50% suppression
# [8] = Chung model rats, i.p., Example 5
SMILES,% MPE ([1]; 3 mg/kg) [% MPE],% MPE ([1]; 10 mg/kg) [% MPE],% MPE ([1]; 20 mg/kg) [% MPE],"% MPE [1, 6] [% MPE]",Duration [1] [min],Time to peak effect [1] [min],Max. efficacy (% MPE) [1] [% MPE],"Duration ([3]; Chung model rats, i.p.) [min]","Time to peak effect ([3]; Chung model rats, i.p.) [min]","Max. efficacy (% MPE) ([3]; Chung model rats, i.p.)",ED50 [3] [mg/kg],"ED50 [3, 7] [mg/kg]",ED50 [4] [mg/kg],maximum efficacy or highest % suppression of allodynia at highest dosage unaffected by toxicity [1],"maximum efficacy or highest % suppression of allodynia at highest dose tested [3, 8]",other results
"Cc1cccc(C)c1OCC(C)N (racemic) [RS-Mexiletine, (R,S)-mexiletine]",20,29,42,75,< 60,30 to 45,61,60,15 to 30,76,35,35,17,–,–,"therapeutic-toxic concentration range ([2]; Monk et al. 1990): 0.5 to 2.0 µg/mL; incidence of adverse side effects (tremors, diplopia, nausea and vomiting) ([2]; human, in vivo): up to 70% of patients; efficacy in painful neuropathies (painful neuropathies): has shown efficacy for a variety of painful neuropathies"
"CCN(CC)CC(=O)Nc1c(C)cccc1C [Lidocaine, lidocaine]",–,–,–,–,30,30,39,90,15,83,38,–,32,–,–,–
"Cc1cccc(C)c1OC[C@@H](C)N [R-Mexiletine, (R)-mexiletine]",10,15,11,86,–,15 to 30,11,–,30,12,–,–,–,11%±5%,12%±5%,"binding affinity relative to (S)-mexiletine (cardiac sodium channels): twice that of (S)mexiletine; antiarrhythmic properties relative to the (S)-isomer (arrhythmia in dogs; background finding referred to): greater than two times more antiarrhythmic properties than the (S)-isomer; antiarrhythmic properties relative to the (S)-enantiomer (arrhythmia in dogs; dogs, Turgeon et al. 1991): greater antiarrhythmic properties than the (S)-enantiomer; ED 50 (in words) [3, 8]: could not be calculated due to low effect at maximum dose"
"Cc1cccc(C)c1OC[C@H](C)N [S-Mexiletine, (S)-mexiletine]",12,50,30,75,60,15 to 45,65,60,15,79,14,14,15,65%±16%,79%±11%,therapeutic-toxic range [5]: 0.25 to 4 µg/mL
